Measurements as given in paper PMC11476017, “A Lincomycin-Specific Antibody Was Developed Using Hapten Prediction, and an Immunoassay Was Established to Detect Lincomycin in Pork and Milk” (Foods, 2024).

System: T1, monoclonal antibody 1B11 (LIN/1B11)
T1 construct: whole monoclonal antibody, IgG1
Test: indirect competitive ELISA with LIN-NaIO4-OVA coating antigen
Assay type: binding

- IC50: 0.57 ± 0.03 µg/kg
Compound: CCC[C@@H]1C[C@@H](C(=O)N[C@@H]([C@H]2O[C@H](SC)[C@H](O)[C@@H](O)[C@H]2O)[C@@H](C)O)N(C)C1 [LIN, lincomycin]
